Patent publication EP1007514B1, “HETEROCYCLIC KETONES AS NPY Y5 ANTAGONISTS” (BAYER CORPORATION, priority 1997, dated 1999)

Assays:
[1] = molecular target: T1, human NPY Y5 receptor subtype (Homo sapiens, UniProt Q15761); assay: NPY Y5 receptor membrane binding, [125I]PYY (human); conditions: membrane protein; 75-100 pM [125I]PYY; 50% inhibition of specific binding; read-out: IC50 (µM) NPY receptor indicated hY5
T1 sequence (Q15761 1-445): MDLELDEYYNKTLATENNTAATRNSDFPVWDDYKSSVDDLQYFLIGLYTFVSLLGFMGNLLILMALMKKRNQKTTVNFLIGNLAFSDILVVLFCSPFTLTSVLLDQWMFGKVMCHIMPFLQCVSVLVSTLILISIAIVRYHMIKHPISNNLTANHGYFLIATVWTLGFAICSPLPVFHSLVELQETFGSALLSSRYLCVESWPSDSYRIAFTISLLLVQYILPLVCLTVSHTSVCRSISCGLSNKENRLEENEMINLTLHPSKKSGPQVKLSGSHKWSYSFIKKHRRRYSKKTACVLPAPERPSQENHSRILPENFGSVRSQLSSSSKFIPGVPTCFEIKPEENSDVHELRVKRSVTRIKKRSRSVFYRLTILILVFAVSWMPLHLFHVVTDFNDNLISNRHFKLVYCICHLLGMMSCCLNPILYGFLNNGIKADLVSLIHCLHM
Protocol: (§1) Assays to determine human and rat NPY Y5 receptor subtype binding affinity are performed on GF/C Millipore 96-well plates pretreated with 0.02% polyethylenimine. The binding buffer is 25 mM Tris, 120 mM NaCl, 5 mM KCl, 1.2 mM KH2PO4, 2.5 mM CaCl2, 1.2 mM MgSO4, 0.1% BSA and 0.5 mg/ml bacitracin, pH 7.4. Samples consist of membrane protein, 75-100 pM [^125I] PYY (porcine, NEN-DuPont) and test compounds diluted in binding buffer. Nonspecific binding is defined by 1 µM PYY. After a 2 hour incubation at room temperature with constant mixing, the samples are aspirated on a vacuum manifold and rinsed with ice-cold binding buffer. The amount of radioactivity in each well is quantitated with either gamma counting or liquid scintillation. IC50 values, which correspond to 50% inhibition of specific binding, are determined with non-linear regression analysis.

[2] = molecular target: T2, rat NPY Y5 receptor subtype (Rattus norvegicus, UniProt Q63634); assay: NPY Y5 receptor membrane binding, [125I]PYY (rat); conditions: membrane protein; 75-100 pM [125I]PYY; 50% inhibition of specific binding; read-out: IC50 (µM) NPY receptor indicated rY5
T2 sequence (Q63634 1-445): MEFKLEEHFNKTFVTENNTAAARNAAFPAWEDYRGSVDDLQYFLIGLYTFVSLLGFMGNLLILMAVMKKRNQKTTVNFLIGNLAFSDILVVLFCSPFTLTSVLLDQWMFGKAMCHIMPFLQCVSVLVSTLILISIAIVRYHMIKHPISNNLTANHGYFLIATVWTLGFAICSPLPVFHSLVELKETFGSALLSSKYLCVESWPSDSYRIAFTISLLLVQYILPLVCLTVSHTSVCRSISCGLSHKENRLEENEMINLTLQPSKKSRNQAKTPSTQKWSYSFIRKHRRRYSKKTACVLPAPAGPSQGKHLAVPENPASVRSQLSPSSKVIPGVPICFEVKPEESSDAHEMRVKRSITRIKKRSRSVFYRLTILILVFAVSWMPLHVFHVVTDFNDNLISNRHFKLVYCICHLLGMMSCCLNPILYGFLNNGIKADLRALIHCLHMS
Protocol: as §1

rat NPY Y5 receptor = molecular target: T3, rat NPY Y5 receptor (Rattus norvegicus, UniProt Q63634); assay: In vitro functional assay, forskolin-stimulated cAMP in cells stably expressing the receptor; format: cell-based; conditions: percentage of forskolin-stimulated adenylate cyclase; 1 µM forskolin; test compound 10 µM; 80 - 120% indicates no significant agonistic effect
T3 construct: expressed in transfected cells
T3 sequence (Q63634 1-445): T2 sequence (Q63634 1-445)
Protocol: An in vitro functional assay to determine rat NPY Y5 receptor subtype binding affinity is performed by resuspending cells stably expressing the rat NPY Y5 receptor in serum-free DMEM containing 10 mM HEPES (pH 7.4) and 1 mM isobutylmethylxanthine (IBMX). One µM forskolin and test compounds at a final concentration of 10 µM are then added to the cells. After a 20 minute incubation of the samples at 37°C, the assay is stopped by placing the samples in boiling water for 3 minutes. The cAMP produced in each sample is quantitated with a radioimmunoassay kit (NEN DuPont). Data are expressed as a percentage of forskolin-stimulated adenylate cyclase. Data between 80 - 120% indicates no significant agonistic effect.

Row | SMILES | IC50 [1] [µM] | IC50 [2] [µM] | % forskolin at 10 µM (rat NPY Y5 receptor) [%]
1 | Cc1ccc(SCC(C(=O)c2ncc[nH]2)c2ccccc2)cc1 (stereo not shown) [Compound 2, (1H-Imidazol-2-yl)-2-phenyl-3-p-tolylsulfanyl-propan-1-one] | 0.83 | 0.46 | 
2 | Cc1ccc(S(=O)(=O)CC(C(=O)c2nc3ccccc3s2)c2ccccc2)cc1 (stereo not shown) [Compound 6, 1-Benzothizol-2-yl-2-phenyl-3-(toluene-4-sulfonyl)-propan-1-one] | 8.8 | 10 | 89
3 | Cc1ccc(S(=O)(=O)CC(C(=O)c2nc3cc(C)c(C)cc3[nH]2)c2ccccc2)cc1 (stereo not shown) [Compound 7, (5,6-Dimethyl-1H-benzoimidazol-2-yl)-2-phenyl-3-(toluene-4-sulfonyl)-propan-1-one] | 0.06 | 0.0526 | 122
4 | O=C(c1nc2ccccc2[nH]1)C(CS(=O)(=O)c1ccccc1)c1ccccc1 (stereo not shown) [Compound 8, 3-Benzenesulfonyl-1-(1H-benzoimidazol-2-yl)-2-phenyl-propan-1-one] | 0.022 | 0.011 | 105
5 | COc1ccc(S(=O)(=O)CC(C(=O)c2nc3ccccc3[nH]2)c2ccccc2)cc1 (stereo not shown) [Compound 10, 1-(1H-Benzoimidazol-2-yl)-3-(4-methoxy-benzenesulfonyl)-2-phenyl-propan-1-one] | 0.011 | 0.0067 | 106
6 | COc1ccc2[nH]c(C(=O)C(CS(=O)(=O)c3ccc(C)cc3)c3ccccc3)nc2c1 (stereo not shown) [Compound 14, 1-(5-Methoxy-1H-benzoimidazol-2-yl)-2-phenyl-3-(toluene-4-sulfonyl)-propan-1-one] | 0.08 |  | 99
